Assay results as given in publication PMC9596378, “Discovery and molecular basis of subtype-selective cyclophilin inhibitors” (Nature Chemical Biology, 2022).
“And” between values parts separate entries of the source, which are not always exact repeats. Equal entries are not always repeated. Where two headings read alike, the source gives them in different places. One block for each compound: values may come before it.

Assays:
Assay in all cases: Chymotrypsin coupled prolyl-isomerase assay
CypD = CypD (Homo sapiens, UniProt P30405)
Cyp40 = Cyp40 (Homo sapiens, UniProt Q08752); conditions: for prolyl-isomerase activity (raw dose-response value): in s^-1
Protocol: Adapting a previously described protocol, with an Agilent Bravo Velocity 11 with a 384ST head, 90 µL assay buffer (25 mM HEPES pH 7.3, 100 mM NaCl, 0.01% Triton X-100) containing 5.28 nM cyclophilin was added into a flat, clear-bottom, black 384-well plate pre-chilled in a Corning CoolBox at 2–3 °C. Five microliters of compound pre-dissolved in 5% DMSO/assay buffer was then added to appropriate wells and incubated at 2–3 °C for 5 min. Five microliters of 0.5 mM α-chymotrypsin from bovine pancreas (Type II, lyophilized powder, Millipore-Sigma) in 20% 1 mM HCl/Assay Buffer was then added to each well and incubated at 2–3 °C for 5 min. The plate was then quickly transferred to a FLIPR Tetra High-Throughput Cellular Screening System (Molecular Devices). Using the internal liquid handling system of the FLIPR, 1 µL 0.5 mM Suc-AAPF-AMC (Chymotrypsin Substrate II, Millipore-Sigma) dissolved in 0.55 M LiCl/2,2,2-trifluoroethanol was added to each well, which was then mixed for 5 s, followed by immediate fluorescence measurements every 1 s for 330 s using a 360–380 nm excitation LED module and a 400–460 nm emission filter. Final concentrations of the plate include 5 nM cyclophilin, 0.25% DMSO, 25 µM α-chymotrypsin, 5 µM Suc-AAPF-AMC. Raw fluorescence data was analyzed by non-linear regression analysis with Prism v.9 by fitting one-phase association curves to each well. […] Rate constants calculated for each well (s^−1) were then normalized to substrate only (no prolyl-isomerase) and enzyme + substrate only controls. IC50 values were calculated as the value at which 50% inhibition was achieved on the non-linear regression fitted curve of each compound.

PPWD1 = target: T1, PPWD1 (Homo sapiens, UniProt Q96BP3); type: biochemical; conditions: for prolyl-isomerase activity (raw dose-response value): in s^-1
T1 construct: PPWD1 (UniProtKB Entry Q96BP3: residues 473–646); host or cells: E. coli BL21(DE3)
T1 sequence (Q96BP3 473-646): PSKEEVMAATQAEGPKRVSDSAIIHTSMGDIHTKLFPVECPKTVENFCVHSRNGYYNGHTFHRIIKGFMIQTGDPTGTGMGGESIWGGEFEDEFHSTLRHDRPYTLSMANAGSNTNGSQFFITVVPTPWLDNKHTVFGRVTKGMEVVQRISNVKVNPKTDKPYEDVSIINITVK

[1] = Wild-Type Cyclophilin Prolyl Isomerase Inhibition IC50 Values, Cyp40, wild-type Cyp40
[2] = wild-type PPWD1, read-out: Wild-Type Cyclophilin Prolyl Isomerase Inhibition IC50 Values, PPWD1
[3] = Wild-Type Cyclophilin Prolyl Isomerase Inhibition IC50 Values, CypD, wild-type CypD

CypD, sequence (P30405 45-207): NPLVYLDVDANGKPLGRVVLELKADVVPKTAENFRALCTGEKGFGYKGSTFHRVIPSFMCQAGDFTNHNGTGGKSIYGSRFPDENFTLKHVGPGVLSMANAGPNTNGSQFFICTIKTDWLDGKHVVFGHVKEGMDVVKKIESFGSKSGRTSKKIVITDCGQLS
Cyp40, sequence (Q08752 1-183): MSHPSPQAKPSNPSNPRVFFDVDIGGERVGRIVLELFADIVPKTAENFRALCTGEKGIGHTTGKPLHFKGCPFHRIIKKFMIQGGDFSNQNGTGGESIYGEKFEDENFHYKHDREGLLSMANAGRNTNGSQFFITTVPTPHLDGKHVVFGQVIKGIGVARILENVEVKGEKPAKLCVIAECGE

Compound: NCCOCCNC(=O)[C@@H]1CCNC(=O)/C=C/C(=O)N2CCC[C@](Cc3ccccc3)(C2)C(=O)N[C@@H](Cc2ccc(-c3ccccc3)cc2)C(=O)NCc2ccccc2CC(=O)N1 [Compound B2]
IC50 (CypD): 0.18 µM
prolyl-isomerase activity (raw dose-response value) (CypD; CypD, dose 0.0195312 µM): 0.1243 and 0.1374 and 0.1472
prolyl-isomerase activity (raw dose-response value) (CypD; CypD, dose 0.0390625 µM): 0.1094 and 0.1294 and 0.1367
prolyl-isomerase activity (raw dose-response value) (CypD; CypD, dose 0.078125 µM): 0.0906 and 0.1127 and 0.1064
prolyl-isomerase activity (raw dose-response value) (CypD; CypD, dose 0.15625 µM): 0.06823 and 0.08697 and 0.08033
prolyl-isomerase activity (raw dose-response value) (CypD; CypD, dose 0.3125 µM): 0.0483 and 0.05915 and 0.05559
prolyl-isomerase activity (raw dose-response value) (CypD; CypD, dose 0.625 µM): 0.03197 and 0.04004 and 0.03906
prolyl-isomerase activity (raw dose-response value) (CypD; CypD, dose 1.25 µM): 0.02117 and 0.02794 and 0.0263
prolyl-isomerase activity (raw dose-response value) (CypD; CypD, dose 2.5 µM): 0.0143 and 0.01947 and 0.02017
prolyl-isomerase activity (raw dose-response value) (CypD; CypD, dose 5 µM): 0.01132 and 0.01248 and 0.01357
prolyl-isomerase activity (raw dose-response value) (Cyp40; Cyp40, dose 0.0228624 µM): 0.06439 and 0.06966 and 0.09224
prolyl-isomerase activity (raw dose-response value) (Cyp40; Cyp40, dose 0.0685871 µM): 0.06672 and 0.05591 and 0.0674
prolyl-isomerase activity (raw dose-response value) (Cyp40; Cyp40, dose 0.205761 µM): 0.05415 and 0.04361 and 0.05573
prolyl-isomerase activity (raw dose-response value) (Cyp40; Cyp40, dose 0.617284 µM): 0.04036 and 0.03584 and 0.03686
prolyl-isomerase activity (raw dose-response value) (Cyp40; Cyp40, dose 1.85185 µM): 0.02841 and 0.02381 and 0.02316
prolyl-isomerase activity (raw dose-response value) (Cyp40; Cyp40, dose 5.55556 µM): 0.01852 and 0.01638 and 0.01429
prolyl-isomerase activity (raw dose-response value) (Cyp40; Cyp40, dose 16.6667 µM): 0.0159 and 0.01466 and 0.0158
prolyl-isomerase activity (raw dose-response value) (Cyp40; Cyp40, dose 50 µM): 0.01447 and 0.01343 and 0.01173
IC50 (Cyp40; [1]): 0.26 µM
prolyl-isomerase activity (raw dose-response value) (PPWD1; PPWD1, dose 0.00976562 µM): 0.06958 and 0.06894 and 0.06376
prolyl-isomerase activity (raw dose-response value) (PPWD1; PPWD1, dose 0.0195312 µM): 0.07052 and 0.06933 and 0.06942
prolyl-isomerase activity (raw dose-response value) (PPWD1; PPWD1, dose 0.0390625 µM): 0.07199 and 0.07365 and 0.06621
prolyl-isomerase activity (raw dose-response value) (PPWD1; PPWD1, dose 0.078125 µM): 0.0685 and 0.06494 and 0.06712
prolyl-isomerase activity (raw dose-response value) (PPWD1; PPWD1, dose 0.15625 µM): 0.06342 and 0.0629 and 0.06451
prolyl-isomerase activity (raw dose-response value) (PPWD1; PPWD1, dose 0.3125 µM): 0.06089 and 0.06073 and 0.06267
prolyl-isomerase activity (raw dose-response value) (PPWD1; PPWD1, dose 0.625 µM): 0.0549 and 0.05757 and 0.05993
prolyl-isomerase activity (raw dose-response value) (PPWD1; PPWD1, dose 1.25 µM): 0.05311 and 0.05273 and 0.05312
prolyl-isomerase activity (raw dose-response value) (PPWD1; PPWD1, dose 2.5 µM): 0.04134 and 0.04153 and 0.04427
prolyl-isomerase activity (raw dose-response value) (PPWD1; PPWD1, dose 5 µM): 0.03369 and 0.0291 and 0.03053
prolyl-isomerase activity (raw dose-response value) (PPWD1; PPWD1, dose 10 µM): 0.0224 and 0.02303 and 0.02481
IC50 (PPWD1; [2]): 3.2 µM

Compound: NCCCc1ccc(-c2ccc(C[C@@H]3NC(=O)[C@]4(Cc5ccccc5)CCCN(C4)C(=O)/C=C/C(=O)NCC[C@@H](C(=O)NCCOCCN)NC(=O)Cc4ccccc4CNC3=O)cc2)cc1 [Compound B32]
IC50 (CypD): 6 µM
reduction in potency for CypD on replacing the carboxylate with an amine (CypD): 500- to 1,000 fold
IC50 (Cyp40; [1]): 4 µM
IC50 (PPWD1; [2]): 0.8 µM

Compound: NC(=O)C1CCNC(=O)C=CC(=O)N2CCCC(Cc3ccccc3)(C2)C(=O)NC(Cc2ccc(-c3ccc(C=O)c(B(O)O)c3)cc2)C(=O)NCc2ccccc2CC(=O)N1 (centres unmarked) [Compound C3A]
IC50 (CypD): 0.6 ± 0.1 µM
CypD prolyl-isomerase raw dose-response reading (Fig. 6c) (CypD; Dose 0.00114312 µM): 0.06909 and 0.06564 and 0.08467
CypD prolyl-isomerase raw dose-response reading (Fig. 6c) (CypD; Dose 0.00342936 µM): 0.0763 and 0.06566 and 0.07012
CypD prolyl-isomerase raw dose-response reading (Fig. 6c) (CypD; Dose 0.00457247 µM): 0.04911 and 0.0434 and 0.06663 and 0.05943 and 0.05791 and 0.04481
CypD prolyl-isomerase raw dose-response reading (Fig. 6c) (CypD; Dose 0.0102881 µM): 0.06833 and 0.05597 and 0.06694
CypD prolyl-isomerase raw dose-response reading (Fig. 6c) (CypD; Dose 0.0308642 µM): 0.07034 and 0.05622 and 0.06
CypD prolyl-isomerase raw dose-response reading (Fig. 6c) (CypD; Dose 0.0411523 µM): 0.05515 and 0.05553 and 0.04718 and 0.06514 and 0.05753 and 0.05809 and 0.04157
CypD prolyl-isomerase raw dose-response reading (Fig. 6c) (CypD; Dose 0.0925926 µM): 0.06297 and 0.05517 and 0.06275
CypD prolyl-isomerase raw dose-response reading (Fig. 6c) (CypD; Dose 0.277778 µM): 0.05848 and 0.04977 and 0.05604
CypD prolyl-isomerase raw dose-response reading (Fig. 6c) (CypD; Dose 0.833333 µM): 0.04291 and 0.04333 and 0.04298
CypD prolyl-isomerase raw dose-response reading (Fig. 6c) (CypD; Dose 2.5 µM): 0.03189 and 0.02949 and 0.03114
IC50 (CypD; IC50 CypD, Independent replicate 1, mean±SEM of 3 technical replicates): 0.7 ± 0.3 µM
IC50 (CypD; IC50 CypD, Independent replicate 2): 0.6 ± 0.3 µM
IC50 (CypD; IC50 CypD, Independent replicate 3): 0.41 ± 0.08 µM
IC50 (CypD; IC50 CypD, Independent replicate 4): ~0.7 µM
IC50 (CypD; [3]): 0.6 µM
Cyp40 prolyl-isomerase raw dose-response reading (Fig. 6c) (Cyp40; Dose 0.00457247 µM): 0.0614 and 0.06993 and 0.05711
Cyp40 prolyl-isomerase raw dose-response reading (Fig. 6c) (Cyp40; Dose 0.0137174 µM): 0.05865 and 0.05903 and 0.06506
Cyp40 prolyl-isomerase raw dose-response reading (Fig. 6c) (Cyp40; Dose 0.0411523 µM): 0.05035 and 0.06856 and 0.04615
Cyp40 prolyl-isomerase raw dose-response reading (Fig. 6c) (Cyp40; Dose 0.123457 µM): 0.06664 and 0.05611 and 0.06364
Cyp40 prolyl-isomerase raw dose-response reading (Fig. 6c) (Cyp40; Dose 0.37037 µM): 0.05889 and 0.05946 and 0.05108
Cyp40 prolyl-isomerase raw dose-response reading (Fig. 6c) (Cyp40; Dose 1.11111 µM): 0.05961 and 0.05287 and 0.0489
Cyp40 prolyl-isomerase raw dose-response reading (Fig. 6c) (Cyp40; Dose 3.33333 µM): 0.034 and 0.04378 and 0.03695
Cyp40 prolyl-isomerase raw dose-response reading (Fig. 6c) (Cyp40; Dose 10 µM): 0.03483 and 0.03698 and 0.03412
IC50 (Cyp40; IC50 Cyp40, Independent replicate 1): 3 ± 1 µM
IC50 (Cyp40; IC50 Cyp40, Independent replicate 2): 1.4 ± 0.5 µM
IC50 (Cyp40; IC50 Cyp40, Independent replicate 3): 1.4 ± 0.3 µM
IC50 (Cyp40; IC50 Cyp40, Independent replicate 4): 1.9 ± 0.5 µM
IC50 (Cyp40; [1]): 1.8 µM
PPWD1 prolyl-isomerase raw dose-response reading (Fig. 6c) (PPWD1; Dose 0.00457247 µM): 0.0469 and 0.04534 and 0.05629
PPWD1 prolyl-isomerase raw dose-response reading (Fig. 6c) (PPWD1; Dose 0.0137174 µM): 0.04565 and 0.04397 and 0.06065
PPWD1 prolyl-isomerase raw dose-response reading (Fig. 6c) (PPWD1; Dose 0.0411523 µM): 0.05156 and 0.0487 and 0.05013
PPWD1 prolyl-isomerase raw dose-response reading (Fig. 6c) (PPWD1; Dose 0.123457 µM): 0.04255 and 0.04648 and 0.048
PPWD1 prolyl-isomerase raw dose-response reading (Fig. 6c) (PPWD1; Dose 0.37037 µM): 0.04707 and 0.04395 and 0.05999
PPWD1 prolyl-isomerase raw dose-response reading (Fig. 6c) (PPWD1; Dose 1.11111 µM): 0.04661 and 0.0432 and 0.04546
PPWD1 prolyl-isomerase raw dose-response reading (Fig. 6c) (PPWD1; Dose 3.33333 µM): 0.03786 and 0.03919 and 0.04546
PPWD1 prolyl-isomerase raw dose-response reading (Fig. 6c) (PPWD1; Dose 10 µM): 0.02858 and 0.03234 and 0.0406
PPWD1 prolyl-isomerase raw dose-response reading (Fig. 6c) (PPWD1; Dose 16.6667 µM): 0.02581 and 0.0305 and 0.02503 and 0.03058 and 0.01822 and 0.02069 and 0.01922 and 0.02384
IC50 (PPWD1; Independent replicate 1, read-out: IC50 PPWD1): > 10 µM
IC50 (PPWD1; Independent replicate 2, read-out: IC50 PPWD1): 8 ± 4 µM
IC50 (PPWD1; Independent replicate 3, read-out: IC50 PPWD1): 6 ± 2 µM
IC50 (PPWD1; Independent replicate 4, read-out: IC50 PPWD1): 9 ± 3 µM
IC50 (PPWD1; prolyl-isomerase inhibition, 5 nM cyclophilin, read-out: IC50 PPWD1): 8 ± 2 µM
IC50 (PPWD1; [2]): 8 µM

IC50 (CypD): 17 µM
IC50 (CypD; IC50 CypD trans, trans olefin isomer): 17 ± 2 µM
IC50 (CypD; [3]): 17 µM
IC50 (Cyp40; [1]): 19 µM
IC50 (PPWD1; [2]): > 100 µM
Compound: NCCOCCNC(=O)C1CCNC(=O)C=CC(=O)N2CCCC(C2)C(=O)NC(Cc2ccco2)C(=O)NCc2ccccc2CC(=O)N1 (centres unmarked) [JOMBt]

Compound: NC(=O)[C@@H]1CCNC(=O)/C=C/C(=O)N2CCC[C@](Cc3ccccc3)(C2)C(=O)N[C@@H](Cc2ccc(-c3cccc(B(O)O)c3)cc2)C(=O)NCc2ccccc2CC(=O)N1 [Compound C6A]
IC50 (CypD; read-out: Wild-Type Cyclophilin Prolyl Isomerase Inhibition IC50 Values, CypD, wild-type CypD): 1.1 µM
IC50 (PPWD1; [2]): > 10 µM
